Target: Voltage-gated inwardly rectifying potassium channel KCNH2 (Homo sapiens, UniProt Q12809)
Assay: Inhibition of dofetilide binding to human ERG by radioligand binding assay

Chain of Voltage-gated inwardly rectifying potassium channel KCNH2 (Q12809 whole entry): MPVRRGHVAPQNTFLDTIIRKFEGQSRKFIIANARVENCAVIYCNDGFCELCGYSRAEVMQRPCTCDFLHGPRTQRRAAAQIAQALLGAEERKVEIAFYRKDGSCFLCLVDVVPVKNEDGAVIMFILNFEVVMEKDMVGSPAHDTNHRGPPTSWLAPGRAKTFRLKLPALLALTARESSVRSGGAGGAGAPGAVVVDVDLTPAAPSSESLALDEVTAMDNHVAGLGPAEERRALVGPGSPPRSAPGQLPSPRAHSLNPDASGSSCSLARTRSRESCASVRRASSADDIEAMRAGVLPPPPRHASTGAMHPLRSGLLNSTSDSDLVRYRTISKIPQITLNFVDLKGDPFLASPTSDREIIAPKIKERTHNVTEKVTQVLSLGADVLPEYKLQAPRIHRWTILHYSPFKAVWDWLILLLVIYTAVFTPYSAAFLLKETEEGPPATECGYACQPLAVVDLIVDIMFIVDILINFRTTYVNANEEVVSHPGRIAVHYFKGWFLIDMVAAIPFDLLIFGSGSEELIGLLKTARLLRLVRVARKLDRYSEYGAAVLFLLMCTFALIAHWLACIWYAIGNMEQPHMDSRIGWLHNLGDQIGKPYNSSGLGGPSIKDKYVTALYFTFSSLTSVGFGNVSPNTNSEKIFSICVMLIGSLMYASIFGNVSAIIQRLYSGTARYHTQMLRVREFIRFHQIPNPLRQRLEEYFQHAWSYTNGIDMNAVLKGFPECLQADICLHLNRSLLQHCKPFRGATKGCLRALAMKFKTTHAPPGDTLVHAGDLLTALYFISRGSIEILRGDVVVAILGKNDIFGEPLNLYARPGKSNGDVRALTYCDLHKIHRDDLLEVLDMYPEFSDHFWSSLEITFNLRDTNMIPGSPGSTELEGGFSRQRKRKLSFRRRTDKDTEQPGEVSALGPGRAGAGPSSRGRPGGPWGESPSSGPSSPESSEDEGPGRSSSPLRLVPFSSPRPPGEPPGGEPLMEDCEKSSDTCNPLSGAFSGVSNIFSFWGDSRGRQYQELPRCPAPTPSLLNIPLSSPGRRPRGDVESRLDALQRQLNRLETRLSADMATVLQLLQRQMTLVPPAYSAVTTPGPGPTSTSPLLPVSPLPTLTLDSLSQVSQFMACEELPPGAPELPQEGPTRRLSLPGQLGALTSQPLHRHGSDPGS

O=C1CCCN1C1CCN(CCc2ccc(Oc3nc4ncccc4s3)cc2)CC1
IC50: > 10 µM

Reference: ChEMBL document CHEMBL2203039, “Azabenzthiazole inhibitors of leukotriene A₄ hydrolase” (Bioorg Med Chem Lett, 2012)
